The values below come from patent publication EP4603099A1 (priority 2022, dated 2024).

“Also recorded” adds a separate entry of the source.

Data set [1] has as its system IAV (H1N1, seasonal isolated strain in 2019). In kind it is cell-based, influenza A virus. As to conditions: human lung explant, 10 µM TFMT; compared with untreated sample.
The next data set deals with IBV. The data set is described as follows: qRT-PCR analysis of IBV RNA in infected A549 cells. It is filed as cell-based, influenza B virus. As to the method:
(§1) The cells were recovered with TRIzol (Invitrogen, 15596), and RNA was extracted according to the manufacturer's protocol. The cDNA was purified using a High-Capacity cDNA Reverse Transcription Kit (Applied Biosystems, 43688). Quantitative reverse transcription polymerase chain reaction (qRT-PCR) was carried out using a Fast SYBR Green Master Mix (Applied Biosystems, 4385614) or a TaqMan Fast Advanced Master Mix (Applied Biosystems, 4444558).
In general terms: In qPCR the cycle at which signal appears reflects the starting amount.

The subject of data set [2] is IAV PR8 strain. In kind it is cell-based, influenza A virus.
In another data set the test system is IAV WSN. The data set is described as follows: mouse in vivo IAV infection model, qRT-PCR of IAV RNA in lung tissue. As to conditions: 2 mg/kg intranasally on day 0 and day 1; 2 days after infection, 5 × 10^3 PFU. Also noted: species or system C57BL/6 mice. As to the method: As shown in the figure, the IAV WSN and TFMT were introduced into the nasal cavity. TFMT was added on the 0th day of the IAV WSN infection and the 1st day of the IAV WSN infection.
qRT-PCR analysis (5 × 10^3 PFU) of IAV RNA in the lung tissue of the IAV-infected C57BL/6 mice on the 2nd day was carried out. TFMT of 2 mg/kg was intranasally administered on the 0th day of infection and the 1st day of infection. […] (*p < 0.05, **p < 0.01).

Data set [3] concerns the target T1, human Mtr1 (Homo sapiens, UniProt Q8N1G2).
T1 sequence (Q8N1G2 1-835): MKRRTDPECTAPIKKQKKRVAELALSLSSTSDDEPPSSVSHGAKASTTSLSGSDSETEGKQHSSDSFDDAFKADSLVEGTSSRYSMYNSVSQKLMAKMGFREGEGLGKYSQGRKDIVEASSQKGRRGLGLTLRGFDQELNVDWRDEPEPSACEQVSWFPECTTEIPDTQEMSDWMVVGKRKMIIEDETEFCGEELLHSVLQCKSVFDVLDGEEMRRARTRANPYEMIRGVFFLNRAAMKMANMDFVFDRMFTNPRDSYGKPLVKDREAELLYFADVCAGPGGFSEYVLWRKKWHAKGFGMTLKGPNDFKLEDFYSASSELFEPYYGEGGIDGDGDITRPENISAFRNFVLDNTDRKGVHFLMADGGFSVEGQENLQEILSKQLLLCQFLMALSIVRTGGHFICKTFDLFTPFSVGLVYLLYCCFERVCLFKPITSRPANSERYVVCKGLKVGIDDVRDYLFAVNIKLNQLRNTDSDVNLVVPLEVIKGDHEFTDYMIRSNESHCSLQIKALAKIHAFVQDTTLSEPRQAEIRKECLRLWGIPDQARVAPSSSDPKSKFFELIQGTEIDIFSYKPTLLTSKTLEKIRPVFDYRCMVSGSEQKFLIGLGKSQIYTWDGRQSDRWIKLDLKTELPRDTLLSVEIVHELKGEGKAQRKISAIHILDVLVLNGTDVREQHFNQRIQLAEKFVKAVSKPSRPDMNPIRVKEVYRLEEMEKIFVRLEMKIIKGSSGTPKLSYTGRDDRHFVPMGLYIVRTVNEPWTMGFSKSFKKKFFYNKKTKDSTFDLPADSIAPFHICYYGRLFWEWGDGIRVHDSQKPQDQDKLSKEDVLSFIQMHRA
The data set is described as follows: methyltransferase (MTase) activity assay. As to conditions: 0.8 µM human MTr1, cap0 RNA, SAM[3H], 37°C overnight.
Description: The synthesized RNA, 3'-O-Me-m7GpppGpG (pN27), was used in a methyltransferase activity assay of human MT r1.
The reaction sample was purified using a mini quick oligo column (Roche, 11814397001), and free SAM [3H] was removed. The purified sample was diluted with ULTIMA GOLD (PerkinElmer, 6013329), and the methyltransferase activity was measured in terms of the number of disintegrations per minute (DPM) by using a scintillation counter LS6500 (Beckman Coulter).

Data set [4] can be described thus: in vivo toxicity in mouse, nasal cavity inoculation, change in body weight. As to conditions: 2 mg/kg intranasally on day 0 and day 1, C57BL/6 mice. As to the method: Next, the in vivo toxicity in the mouse was evaluated by carrying out nasal cavity inoculation once a day for two days.
TFMT or tubercidin at 2 mg/kg was intranasally administered to C57BL/6 mice on the 0th day of infection and the 1st day of infection (indicated by arrows in the figure).

In data set [5] the test system is IAV PR8 strain.
The subject of data set [6] is HAZV. In kind it is cell-based, Hazara virus.
Data set [7] deals with HAZV. In kind it is cell-based, Hazara virus. This is another data set of the same source.
Another data set deals with STBV. The data set is described as follows: qRT-PCR analysis of STBV RNA in infected A549 cells. As to conditions: A549, m.o.i. 0.1, 24 hours. In kind it is cell-based, Soft tick bunya virus. As to the method:
as §1

The test system of a further data set is IAV-GFP SC35M strain. In kind it is cell-based, influenza A virus.
The subject of another data set is IFN-β RNA. The data set is described as follows: qRT-PCR analysis of IFN-β RNA and other host RNAs in A549 cells. It is filed as cell-based, human. As to conditions: A549 infected or not with IAV PR8 (m.o.i. 1), 10 µM TFMT. As to the method: as §1
1 was analyzed in the presence or absence of 10 µM TFMT.
Each RNA indicated in the figure at the indicated moment at the m.o.i. of 1, in A549 cells which had been infected or not infected with the IAV PR8 strain in the presence or absence of 10 µM TFMT, was analyzed.

Data set [8] addresses T1, human Mtr1. The data set is described as follows: thermal shift assay using SYPRO Orange. As to conditions: ribavirin as control.
[9] abbreviates: NHBE cells, m.o.i. 1, 24 hours, […].

On to `Nc1ncnc2c1c(C(F)(F)F)cn2[C@@H]1O[C@H](CO)[C@@H](O)[C@H]1O` [TFMT, trifluoromethyl tubercidin], for which the “virus titer, second figure printed in the same sentence ('and was 100 to 1,000')” value in data set [1] is listed as 100 to 1,000.
Broadly, the IC50 is the midpoint of a concentration-inhibition curve. For the molecule trifluoromethyl tubercidin [TFMT], the “antiviral activity against IBV (virus RNA, qRT-PCR)” value in the data set on IBV (A549, m.o.i. 1, 24 hours) is “exhibits an antiviral activity”. Further, in the data set with IAV PR8 strain [2] (A549, m.o.i. 1, 24 hours), the “antiviral activity against IAV (virus RNA, qRT-PCR)” value is recorded as “exhibits an antiviral activity”. The “dependence of the effect on IAV replication on innate immune factors (IAV RNA segment 7)” value in the data set on IAV PR8 strain [2] (A549, m.o.i. 1, 24 hours (FIG. 29)) is reported as “independent of the IFIT1-dependent isolation of RNA or RIG-I/MDA5 signaling”. Further, in the data set with IAV WSN, the “IAV NP level in the mouse lung (IAV RNA segment 5, qRT-PCR)” value was “significantly reduced” and the “PB2 mRNA level in the mouse lung (IAV RNA segment 1, qRT-PCR)” value was “significantly reduced”. Besides, the “cell cytotoxicity of combined treatment (WST-8)” value with A549 cells was “without cell cytotoxicity”. In addition, the “in vitro toxicity (WST-8 cell survival rate assay)” value in the data set on A549 cells (A549, within the effective concentration range) is reported as “no significant in vitro toxicity was confirmed within the effective concentration range”. Moreover, the “MTase activity of the recombinant MTr1 protein” value on human Mtr1 [3] is reported as “inhibited”. For the same molecule, in data set [4], the “change in body weight” value is “does not cause body weight loss or cell cytotoxicity”. Besides, in the data set with IAV PR8 strain [5], the “cell cytotoxicity in NHBE cells (histological analysis)” value is listed as “without cell cytotoxicity”. Also, in the data set on IAV PR8 strain [5] (setting [9]), the “RNA level of IAV (segment 7, qRT-PCR)” value was “significantly reduced in a dosage-dependent manner” and the “protein level of IAV (Western blot)” value was “significantly reduced in a dosage-dependent manner”. Also, the “IAV NP level (immunostaining)” value with IAV PR8 strain [5] (NHBE cells, m.o.i. 2, 24 hours, 10 µM TFMT) was “significantly decreased”. Further, in the data set on HAZV [6], the “HAZV replication (HAZV RNA, qRT-PCR)” value was “did not inhibit HAZV replication”. The “antiviral activity against HAZV (virus RNA, qRT-PCR)” value in the data set with HAZV [7] was “does not exhibit an antiviral activity”. Moreover, the “antiviral activity against STBV (virus RNA, qRT-PCR)” value in the data set on STBV is “does not exhibit an antiviral activity”. In the data set on IAV-GFP SC35M strain, the “IAV replication (GFP level), time of addition” value is on record as “significantly inhibited IAV replication; also recorded: the effect was reduced or could not be confirmed” and the “inhibition at the lowest concentration, secondary screening step 3” value is given as “identified as the most effective compound”. For the same molecule, in the data set on IAV-GFP SC35M strain (combination of TFMT and amantadine, […]), the “synergistic effect with amantadine (GFP relative fluorescence units, combination index)” value was “exhibited a synergistic effect”. For the same molecule, the “synergistic effect with BXM (GFP relative fluorescence units, combination index)” value in the data set on IAV-GFP SC35M strain (combined treatment of TFMT and BXM, […]) was “a strong synergistic effect was observed”. Also, in the data set on IAV-GFP SC35M strain (read-out: IC50 for IAV infection), the half-maximal inhibitory concentration (IC50) worked out at 300 nM. The “induction of IFN-β or antiviral ISG (qRT-PCR)” value with IFN-β RNA is listed as “did not induce IFN-β or antiviral ISG”.
For the molecule `Nc1ncnc2c1ccn2[C@@H]1O[C@H](CO)[C@@H](O)[C@H]1O` [tubercidin], the “effect on IBV infection” value in the data set with IBV (A549, compound added 3 hours before infection (FIG. 19(d))) is recorded as “had an effect on the IBV infectious disease”. Moreover, the “toxicity (WST-8)” value with A549 cells (A549 infected with IAV-GFP, 19 hours, tubercidin 0.1 to 100 µM) is “the toxicity was slight”. Besides, at human Mtr1 [3], the “MTase activity of the recombinant MTr1 protein” value is “inhibits the MTase activity of the recombinant MTr1 protein in a dosage-dependent manner”. Also, the “change in body weight” value in data set [4] was “caused a significant body weight loss”. Moreover, in the data set with IAV-GFP SC35M strain, the “anti-IAV activity, rank among 12 commercially available compounds (GFP level)” value is recorded as “identified as the most effective compound” and the “inhibition of IAV-GFP (GFP level), dose dependence” value is given as “the inhibition depended on the dose at 0.1 to 100 µM”. Further, the “binding to recombinant MTr1 (thermal shift)” value at human Mtr1 [8] was “directly binds to the recombinant MTr1”.
